Assay results taken from patent EP4725954A1, “MODIFIED PEPTIDES SUCH AS POLYPEPTIDES LA-19 AND TM-19 HAVING ANTI-AGING AND REPAIRING EFFECTS AND USE THEREOF” (Anhui Dexin Huahai Biological Technology Co. Ltd., priority 2023, dated 2025).
Like-named read-outs stand apart in the source and are kept apart here. Where no end group is shown, it is not given here.

Experiments:
[1] = test system: Human keratinocytes (HaCaT cells); test: Cytotoxicity test of the polypeptides on keratinocytes (CCK-8); conditions: in words; for effect on cell growth: compared to the blank group
Protocol: (§3) Human keratinocytes (HaCaT cells, Nanjing Saihongrui Biotechnology Co., Ltd.).
(§4) Cell culture conditions: constant temperature and humidity incubator (37°C, 95% air, 5% carbon dioxide), 90% dulbecco's modified eagle medium (DMEM) high-glucose medium + 10% fetal bovine serum (Nanjing BioChannel Biotechnology Co., Ltd).
(§5) A cell culture flask was taken out from the cell incubator, observed under a microscope, and the cells were in the logarithmic growth phase. In a clean bench, the medium was discarded, the cells were rinsed with 2 mL of phosphate buffer saline (PBS) and discarded; after repeating the above process once, 2 mL of 0.25% trypsin was added for digestion. The digestion was terminated by adding a corresponding volume of serum-containing medium, and the cells were transferred to a 15 mL conical centrifuge tube and centrifuged at 1000 rpm for 5 minutes. The serum-containing medium was resuspended in a resuspension volume of 2 mL. The cells were counted and calculated. The cells were then diluted, and plated; then the diluted cell suspension was taken, then the 96-well plate was paved with 10^4 cells/well, and the edge wells were filled with PBS. The well plate was taken out from the cell incubator, the medium was discarded, the well-plate of the administration group was added with the corresponding drugs and placed into the cell incubator for incubation for 48 hours. On the day of detection, the 96-well plate was taken out from the cell incubator, and added with 10 µL of a CCK-8 reagent per well in the clean bench, and then quickly placed into the cell incubator for 60 minutes, and the absorbance was measured with a microplate reader and the absorbance was measured at OD 450 nm. The average reading of the blank group was taken, and the numerical value of each group was divided by the average value to obtain the change in cell viability. Results are expressed as Mean ± SEM, compared with the blank group, *P<0.05 denotes a significant difference, **P<0.01, ***P<0.001, and ****P<0.0001 denote very significant differences.

[2] = test system: Human keratinocytes (HaCaT cells)
Protocol: as §3, §4, §5

[3] = test system: IL-6; test: Anti-inflammatory activity test on keratinocytes: IL-6 ELISA; type: cell-based, Human; conditions: 10 µM; UVB 30 mJ/cm^2, HaCaT supernatant; blank 10.619, model 18.622; Mean ± SEM
Protocol: (§1) Interleukin-6 ELISA assay kit (Shanghai Beyotime Biotechnology Co., Ltd.); tumor necrosis factor α ELISA assay kit (Shanghai Beyotime Biotechnology Co., Ltd.); 6-well plate (Wuxi NEST Biotechnology Co., Ltd.); and palmitoyl tetrapeptide-7 (Shenzhen Jianyuan Pharmaceutical Technology Co., Ltd.). Other experimental materials and instruments are the same as those in Examples 1, 2, and 3.
(§2) The cells were counted and calculated. […] After 24 hours of incubation, cell UV modeling was performed. The UVB lamp tube was turned on, and the radiation intensity was measured with a UV irradiance meter. When the radiation intensity reached 500 µW/cm^2, the uncovered 6-well plate was placed and irradiated for 1 minute such that the radiation dose was up to 30 mJ/cm^2. At the end of the radiation, the 6-well plate was covered and placed into the cell incubator.

[4] = test system: TNF-α; test: Anti-inflammatory activity test on keratinocytes: TNF-α ELISA; type: cell-based, Human; conditions: 10 µM; UVB 30 mJ/cm^2, HaCaT supernatant; blank 2.890, model 10.812; Mean ± SEM
Protocol: as §1, §2

| Substance | effect on cell growth [1] | also measured |
| --- | --- | --- |
| Ac-LQSSLRALRQMGGGTKAAA [P6] | do not significantly inhibit cell growth |  |
| Ac-LQTSLRALRQIGGGTKAAA [P9] | do not significantly inhibit cell growth |  |
| GGGLQSSLRALRQM [P4] | do not significantly inhibit cell growth |  |
| LQSSLRALRQM [P5] |  | effect on cell growth [2]: do not significantly inhibit cell growth |
| LQSSLRALRQMGGG [P3] | do not significantly inhibit cell growth |  |
| LQSSLRALRQMGGGTKAAA [LA-19] | do not significantly inhibit cell growth | toxicity to keratinocytes [1]: no obvious toxicity to keratinocytes |
| LQSSLRALRQMGGGTKAAA-NH2 [P7] | do not significantly inhibit cell growth |  |
| LQTSLRALRQIGGGTKAAA [P8] | do not significantly inhibit cell growth |  |
| TKAAA [Acein, reference compound] | do not significantly inhibit cell growth |  |
| TKAAAGGGLQSSLRALRQM [TM-19] | slightly inhibit cell growth at low concentrations but promote cell proliferation at high concentrations |  |
| TKAAAGGGLQTSLRALRQI [P10] | do not significantly inhibit cell growth |  |
| palmitoyl tetrapeptide-7 |  | IL-6 activity (pg/mgprot) [3]: 13.901±1.356 pg/mgprot; TNF-α activity (pg/mgprot) [4]: 6.832±2.461 pg/mgprot |
